Experiment [1] has as its target T1, Heat shock factor protein 1 (Mus musculus, UniProt P38532).
T1 sequence (P38532 whole entry): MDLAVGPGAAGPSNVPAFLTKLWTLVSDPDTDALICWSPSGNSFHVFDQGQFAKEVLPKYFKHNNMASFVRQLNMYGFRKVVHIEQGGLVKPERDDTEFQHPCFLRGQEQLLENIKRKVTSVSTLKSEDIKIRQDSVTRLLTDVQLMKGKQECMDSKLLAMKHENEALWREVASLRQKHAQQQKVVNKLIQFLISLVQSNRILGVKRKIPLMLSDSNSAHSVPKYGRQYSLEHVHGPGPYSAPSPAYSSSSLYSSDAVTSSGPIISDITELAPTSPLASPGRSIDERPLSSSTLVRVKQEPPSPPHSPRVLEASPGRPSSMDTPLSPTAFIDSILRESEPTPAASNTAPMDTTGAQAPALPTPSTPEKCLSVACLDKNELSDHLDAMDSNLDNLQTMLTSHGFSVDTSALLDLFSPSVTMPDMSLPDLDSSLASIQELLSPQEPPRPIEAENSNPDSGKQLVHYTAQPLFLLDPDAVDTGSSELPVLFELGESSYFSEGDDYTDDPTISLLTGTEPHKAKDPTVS
The experiment is described as follows: inhibition of MG132-induced HSE-luciferase signal, confirmation, cell-based, NIH3T3, luminescence, dose retest (AID 2382).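 Also: NIH3T3 fibroblasts with HSF1-driven luciferase reporter stressed by proteasome inhibitor MG132; luminescence from HSF1-driven luciferase expression after 8 hours of MG132 stress.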 It is filed as functional.

In the next experiment the target is Prothrombin (Homo sapiens, UniProt P00734). In words: Thrombin 1536 HTS Dose Response Confirmation. [Related pubchem assays: 1046 (Thrombin 1536 HTS; hits were confirmed in this assay)]. It is filed as functional.
Experiment [2] addresses Dual specificity protein kinase CLK1 (Homo sapiens, UniProt P49759). The experiment is described as follows: CLK1 kinase inhibitors, off-target check, dose response, selectivity assay for Dyrk1A inhibitor project, biochemical, cherry-picked samples (AID 588811).
For experiment [3], the target named is Dual specificity tyrosine-phosphorylation-regulated kinase 1A (Rattus norvegicus, UniProt Q63470). It is filed as biochemical, Homo sapiens.
A further experiment addresses Cysteine protease ATG4B (Homo sapiens, UniProt Q9Y4P1). It is filed as functional.
The target in another experiment is Phospholipase A2 (Homo sapiens, UniProt P04054). Type of experiment: functional.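 Also: confirmatory dose-response counterscreen on phospholipase A2, testing hits that came from an ultra-high-throughput screen for ATG4B inhibitors.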
In experiment [4] the test system is INS1. In words: protection of INS-1E cells from cytokine death, dose response, ATP luminescence, dry powder (AID 488844). Particulars: Rattus norvegicus. It is filed as functional, cell-based.
Experiment [5] in a line: inhibitors of cytokine-induced nitrite release, dose response, cell-based, Griess absorbance, INS-1E, dry powder, set 3 (AID 488870). Type of experiment: functional. Particulars: Rattus norvegicus.
For experiment [6], the system named is INS1. In words: protection from cytokine-driven beta-cell apoptosis, dose response, JC-1 fluorescence, INS-1E, dry powder, set 2 (AID 488867). Type of experiment: functional, cell-based. Particulars: Rattus norvegicus.
The test system of experiment [7] is HEK293. The experiment is described as follows: inhibitors of LMP1-driven NF-kB reporter, dose response, cell-based, HEK293, luciferase, cherry-pick (AID 588343). Type of experiment: functional. Particulars: Homo sapiens.
For experiment [8], the target named is Latent membrane protein 1 (Human herpesvirus 4 (strain B95-8), UniProt P03230). The experiment is described as follows: TES1-eGFP NF-kB reporter inhibition versus Tet-On dsRED, dose response, selectivity assay for LMP1 NF-kB inhibitor project, imaging, HEK293T, dual-color eGFP/dsRED, cherry-picks (AID 588398). It is filed as functional, cell-based.
Experiment [9] in a line: Shn3 3'UTR reporter inhibitors, dose response, cell-based, Clone20 osteoblasts, firefly luciferase, cherry-picked (AID 624132).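 Also: firefly luciferase luminescence from reporter carrying the Shn3 3'UTR in osteoblasts.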 It is filed as functional.
A short description of experiment [10]: HepG2 cell cytotoxicity, dose response, cytotoxicity control for Shn3 inhibitor project, CellTiter-Glo, cherry-picked (AID 624134). Type of experiment: functional, cell-based.
The nature of experiment [11]: control 3'UTR Renilla luciferase suppression, dose response, counter-screen for Shn3 inhibitor project, cell-based, Clone20-Shn3RL, cherry-picked (AID 624133). It is filed as functional.
Experiment [12] deals with COUP transcription factor 2 (Homo sapiens, UniProt P24468). In words: Luminescence-based cell-based high throughput dose response assay to identify inhibitors of COUP-TFII (NR2F2). Type of experiment: functional.
Experiment [13] deals with T2, RNA-binding protein pos-1 (Caenorhabditis elegans, UniProt G5EF15).
T2 sequence (G5EF15 whole entry): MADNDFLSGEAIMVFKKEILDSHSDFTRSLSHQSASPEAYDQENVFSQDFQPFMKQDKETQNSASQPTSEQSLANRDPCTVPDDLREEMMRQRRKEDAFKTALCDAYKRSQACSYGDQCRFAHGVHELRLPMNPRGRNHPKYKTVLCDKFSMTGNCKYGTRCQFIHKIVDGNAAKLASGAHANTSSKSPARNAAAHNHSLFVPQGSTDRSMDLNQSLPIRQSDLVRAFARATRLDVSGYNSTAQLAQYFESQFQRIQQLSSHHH
In words: inhibitors of POS-1/mex-3 RNA binding, dose response, biochemical, fluorescence polarization (AID 1964).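 Also: purified POS-1 fused to maltose binding protein made in E. coli; potency of compounds blocking POS-1 binding to fluorescent RNA.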

The target of experiment [14] is T3, Zinc finger protein mex-5 (Caenorhabditis elegans, UniProt Q9XUB2).
T3 sequence (Q9XUB2 whole entry): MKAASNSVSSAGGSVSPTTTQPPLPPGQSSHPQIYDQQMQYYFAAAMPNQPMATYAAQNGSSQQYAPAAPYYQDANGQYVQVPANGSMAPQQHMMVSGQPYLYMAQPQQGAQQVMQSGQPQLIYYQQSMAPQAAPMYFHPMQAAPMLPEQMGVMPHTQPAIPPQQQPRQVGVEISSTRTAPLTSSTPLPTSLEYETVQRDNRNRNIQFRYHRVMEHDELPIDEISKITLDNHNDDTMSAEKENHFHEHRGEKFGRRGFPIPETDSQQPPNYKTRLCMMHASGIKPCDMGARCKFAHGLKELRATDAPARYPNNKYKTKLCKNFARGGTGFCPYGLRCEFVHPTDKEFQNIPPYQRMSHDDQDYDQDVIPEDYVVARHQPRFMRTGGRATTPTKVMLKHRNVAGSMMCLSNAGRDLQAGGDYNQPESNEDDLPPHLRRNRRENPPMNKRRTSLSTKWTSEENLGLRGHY
The experiment is described as follows: MEX-5/TCR-2 RNA interaction inhibitors, dose response, biochemical, C. elegans, fluorescence polarization (AID 1960).

Experiment [15] has as its target T4, Endoribonuclease toxin MazF (Escherichia coli K-12, UniProt P0AE70).
T4 sequence (P0AE70 whole entry): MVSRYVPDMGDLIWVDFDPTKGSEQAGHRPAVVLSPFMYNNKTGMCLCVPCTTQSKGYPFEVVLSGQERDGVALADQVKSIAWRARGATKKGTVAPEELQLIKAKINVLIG
In words: MazF endoribonuclease activators, SAR follow-up, biochemical, fluorescence, single-stranded RNA substrate (AID 588603). Type of experiment: functional.

Experiment [16] addresses T4, Endoribonuclease toxin MazF. The experiment is described as follows: MazF toxin RNase activators, dose response, biochemical, fluorescence, single-stranded RNA substrate, uHTS hits (AID 588481). It is filed as functional.
A further experiment concerns MEF. The experiment is described as follows: SAR analysis of small molecule cytotoxicity of MazEF TA System activators in embryonic fibroblast (MEF) cells. [Related pubchem assays (depositor defined):AID504720, AID504743]. Type of experiment: functional. Particulars: Mus musculus.
Experiment [17] concerns the target T4, Endoribonuclease toxin MazF. In words: SAR analysis of small molecule activators of the MazEF TA System via a fluorescence-based single-stranded RNase assay counterscreen. [Related pubchem assays (depositor defined):AID504720, AID504743]. Type of experiment: functional.
For experiment [18] the target is unchanged. The experiment is described as follows: fluorescent RNA oligo signal without MazF, dose response, counter-screen for MazEF activator project, biochemical, fluorescence, single-stranded RNase substrate (AID 588502). It is filed as functional.
A further experiment addresses Genome polyprotein (dengue virus type 2, UniProt P29990). In words: Dengue-2 NS5 methyltransferase inhibitors, primary screen, biochemical, confirmation dose response (AID 588689). It is filed as functional.
Experiment [19] is described as follows: NIH-3T3 fibroblast cytotoxicity, dose response, cytotoxicity control, cell-based, fluorescence, Alamar Blue, secondary assay (AID 2327).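 Also: NIH-3T3 mouse fibroblasts cultured with fluconazole at 8 µg/mL.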 Type of experiment: functional.
The nature of experiment [20]: C. albicans growth with fluconazole, confirmation, fluorescence, retest (AID 2467). It is filed as functional, cell-based.
The target of experiment [21] is Serine/threonine-protein phosphatase (Candida dubliniensis (strain CD36 / CBS 7987 / NCPF 3949 / NRRLY-17841) (Yeast), UniProt B9W6M3). In words: calcineurin pathway inhibitors in yeast reporter, dose response, S. cerevisiae, CDRE-lacZ, luminescence, secondary (AID 2388).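 Also: yeast reporter cells carrying a calcineurin-responsive lacZ construct stimulated with calcium chloride; luminescent beta-galactosidase reporter signal in whole cells rather than isolated phosphatase activity; potency for inhibition where a drop in reporter signal means calcineurin blockade.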 It is filed as functional, cell-based.
Experiment [22] can be described thus: THP-1 cell cytotoxicity, dose response, cytotoxicity control for non-replicating M. tuberculosis project (AID 489025). Type of experiment: functional.
Experiment [23] can be described thus: HepG2 cell cytotoxicity, dose response, cytotoxicity control for non-replicating M. tuberculosis project (AID 489018). It is filed as functional. Particulars: Mycobacterium tuberculosis.
A short description of experiment [24]: Vero E6 cell cytotoxicity, dose response, cytotoxicity control for non-replicating M. tuberculosis project, secondary assay (AID 492998). Type of experiment: functional, VeroE6. Particulars: Vero C1008.
The nature of the next experiment: cells. It is filed as functional.
The target in experiment [25] is ATP-dependent molecular chaperone HSP82 (Candida albicans (strain WO-1) (Yeast), UniProt C4YTQ8). In words: loss of DOC-induced GRE-beta-galactosidase reporter signal, dose response, Hsp90 inhibitor project, S. cerevisiae, luminescence (AID 2400).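 Also: beta-galactosidase luminescence from glucocorticoid response element reporter as proxy for Hsp90 function; inhibitor potency where signal loss means Hsp90 inhibition.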 It is filed as functional, cell-based.
Experiment [26] relates to HEK293. In words: cells. It is filed as functional, cell-based. Particulars: Homo sapiens.
In experiment [27] the target is Nuclear receptor subfamily 0 group B member 1 (Homo sapiens, UniProt P51843). The experiment is described as follows: Luminescence-based cell-based high throughput dose response assay for inhibitors of the orphan nuclear receptor subfamily 0, group B, member 1 (DAX1; NR0B1). [Related pubchem assays (depositor defined):AID504766, AID504790]. Type of experiment: functional.

Structures are written as SMILES. Active and inactive are the calls of the source.

ATP-dependent molecular chaperone HSP82, sequence (C4YTQ8 whole entry): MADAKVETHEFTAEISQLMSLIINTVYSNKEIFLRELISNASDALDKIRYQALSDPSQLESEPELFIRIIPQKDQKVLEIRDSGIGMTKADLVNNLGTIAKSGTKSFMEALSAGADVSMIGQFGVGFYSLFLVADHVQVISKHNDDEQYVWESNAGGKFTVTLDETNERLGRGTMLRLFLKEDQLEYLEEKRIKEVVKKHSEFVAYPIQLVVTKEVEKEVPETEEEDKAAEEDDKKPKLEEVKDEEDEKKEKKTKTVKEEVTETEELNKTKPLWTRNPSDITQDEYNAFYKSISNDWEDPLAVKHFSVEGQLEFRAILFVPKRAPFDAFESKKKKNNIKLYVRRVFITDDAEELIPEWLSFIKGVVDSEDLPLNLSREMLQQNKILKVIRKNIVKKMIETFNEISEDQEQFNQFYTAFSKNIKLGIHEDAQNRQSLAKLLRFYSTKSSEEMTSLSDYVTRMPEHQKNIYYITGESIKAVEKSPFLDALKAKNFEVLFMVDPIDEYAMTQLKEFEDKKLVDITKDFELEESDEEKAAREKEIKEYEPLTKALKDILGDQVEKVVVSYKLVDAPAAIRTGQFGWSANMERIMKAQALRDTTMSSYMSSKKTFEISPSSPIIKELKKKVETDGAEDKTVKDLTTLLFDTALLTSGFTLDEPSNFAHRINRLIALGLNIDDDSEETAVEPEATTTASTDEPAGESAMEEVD
Phospholipase A2, sequence (P04054 whole entry): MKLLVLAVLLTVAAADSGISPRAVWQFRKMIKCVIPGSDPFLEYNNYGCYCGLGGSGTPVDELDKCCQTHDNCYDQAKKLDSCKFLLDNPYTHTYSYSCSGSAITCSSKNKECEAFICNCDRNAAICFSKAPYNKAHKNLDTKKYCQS
Cysteine protease ATG4B, sequence (Q9Y4P1 whole entry): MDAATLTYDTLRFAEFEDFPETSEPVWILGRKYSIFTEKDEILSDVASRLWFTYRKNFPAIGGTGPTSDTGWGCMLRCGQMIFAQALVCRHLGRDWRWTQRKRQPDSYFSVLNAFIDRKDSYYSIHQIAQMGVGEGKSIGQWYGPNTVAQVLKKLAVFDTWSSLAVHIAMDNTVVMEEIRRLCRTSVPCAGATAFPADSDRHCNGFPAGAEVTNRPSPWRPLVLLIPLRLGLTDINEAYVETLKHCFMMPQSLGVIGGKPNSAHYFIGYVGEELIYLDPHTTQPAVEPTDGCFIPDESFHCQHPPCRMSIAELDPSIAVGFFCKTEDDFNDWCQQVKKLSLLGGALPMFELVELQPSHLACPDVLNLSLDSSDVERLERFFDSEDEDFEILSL
Nuclear receptor subfamily 0 group B member 1, sequence (P51843 whole entry): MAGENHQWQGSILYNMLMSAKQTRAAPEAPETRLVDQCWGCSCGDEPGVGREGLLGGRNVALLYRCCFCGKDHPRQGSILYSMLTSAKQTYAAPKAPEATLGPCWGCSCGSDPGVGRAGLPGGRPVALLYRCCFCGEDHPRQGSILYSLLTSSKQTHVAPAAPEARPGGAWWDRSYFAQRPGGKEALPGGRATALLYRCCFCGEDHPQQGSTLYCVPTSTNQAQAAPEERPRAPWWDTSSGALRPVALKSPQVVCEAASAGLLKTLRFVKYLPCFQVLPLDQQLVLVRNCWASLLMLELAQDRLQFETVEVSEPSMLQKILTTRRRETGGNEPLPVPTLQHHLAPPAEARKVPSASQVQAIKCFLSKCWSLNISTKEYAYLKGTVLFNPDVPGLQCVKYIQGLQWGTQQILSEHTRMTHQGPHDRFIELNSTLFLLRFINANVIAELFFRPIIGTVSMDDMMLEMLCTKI
COUP transcription factor 2, sequence (P24468 whole entry): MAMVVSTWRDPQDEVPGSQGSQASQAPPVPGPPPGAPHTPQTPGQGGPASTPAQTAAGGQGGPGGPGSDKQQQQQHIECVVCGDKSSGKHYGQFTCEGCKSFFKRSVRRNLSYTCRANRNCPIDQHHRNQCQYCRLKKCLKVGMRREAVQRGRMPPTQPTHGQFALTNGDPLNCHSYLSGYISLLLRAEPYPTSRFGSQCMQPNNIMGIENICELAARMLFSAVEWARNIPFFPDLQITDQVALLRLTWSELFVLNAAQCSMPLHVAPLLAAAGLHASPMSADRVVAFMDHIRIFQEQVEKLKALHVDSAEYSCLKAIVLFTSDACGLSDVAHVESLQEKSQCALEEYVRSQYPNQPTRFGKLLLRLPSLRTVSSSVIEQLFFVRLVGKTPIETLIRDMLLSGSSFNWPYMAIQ
Serine/threonine-protein phosphatase, sequence (B9W6M3 whole entry): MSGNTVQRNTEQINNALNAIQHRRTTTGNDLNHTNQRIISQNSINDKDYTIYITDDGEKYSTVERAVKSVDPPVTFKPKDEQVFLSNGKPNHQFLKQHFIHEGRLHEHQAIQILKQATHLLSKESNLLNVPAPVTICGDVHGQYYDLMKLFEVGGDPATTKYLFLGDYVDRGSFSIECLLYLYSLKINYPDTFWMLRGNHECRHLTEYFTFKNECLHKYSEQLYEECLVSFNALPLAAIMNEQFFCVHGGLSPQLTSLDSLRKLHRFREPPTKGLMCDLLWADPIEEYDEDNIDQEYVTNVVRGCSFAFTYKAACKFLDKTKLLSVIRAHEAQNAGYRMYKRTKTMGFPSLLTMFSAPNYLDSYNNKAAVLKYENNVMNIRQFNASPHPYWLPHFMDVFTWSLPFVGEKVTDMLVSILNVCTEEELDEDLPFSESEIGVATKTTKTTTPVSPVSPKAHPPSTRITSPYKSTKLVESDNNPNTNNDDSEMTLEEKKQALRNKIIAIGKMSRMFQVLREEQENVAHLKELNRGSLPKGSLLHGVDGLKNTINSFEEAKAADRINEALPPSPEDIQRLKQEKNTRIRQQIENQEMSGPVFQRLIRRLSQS
Genome polyprotein, sequence (P29990 2492-3391 limits assumed): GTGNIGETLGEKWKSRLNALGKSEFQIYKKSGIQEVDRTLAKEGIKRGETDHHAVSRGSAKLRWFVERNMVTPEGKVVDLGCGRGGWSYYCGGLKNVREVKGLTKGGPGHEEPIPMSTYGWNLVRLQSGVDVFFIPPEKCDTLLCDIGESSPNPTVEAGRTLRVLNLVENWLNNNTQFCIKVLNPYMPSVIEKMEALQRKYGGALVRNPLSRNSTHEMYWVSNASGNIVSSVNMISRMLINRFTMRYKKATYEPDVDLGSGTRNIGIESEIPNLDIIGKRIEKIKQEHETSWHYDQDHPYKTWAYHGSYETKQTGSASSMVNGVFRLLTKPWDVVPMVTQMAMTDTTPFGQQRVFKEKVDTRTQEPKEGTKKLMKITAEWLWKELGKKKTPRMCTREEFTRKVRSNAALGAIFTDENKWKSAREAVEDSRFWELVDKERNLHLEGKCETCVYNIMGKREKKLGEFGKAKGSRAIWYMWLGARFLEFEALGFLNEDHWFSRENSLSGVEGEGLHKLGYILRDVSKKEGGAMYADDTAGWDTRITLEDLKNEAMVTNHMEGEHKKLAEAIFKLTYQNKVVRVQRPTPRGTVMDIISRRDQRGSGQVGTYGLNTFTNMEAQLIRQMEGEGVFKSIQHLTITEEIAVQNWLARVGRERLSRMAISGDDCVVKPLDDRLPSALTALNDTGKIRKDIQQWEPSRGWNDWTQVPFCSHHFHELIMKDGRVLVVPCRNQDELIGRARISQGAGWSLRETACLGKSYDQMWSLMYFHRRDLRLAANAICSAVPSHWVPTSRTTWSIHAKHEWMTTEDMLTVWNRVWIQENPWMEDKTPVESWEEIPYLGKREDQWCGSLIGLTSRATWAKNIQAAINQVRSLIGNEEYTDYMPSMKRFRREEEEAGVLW
Dual specificity protein kinase CLK1, sequence (P49759 whole entry): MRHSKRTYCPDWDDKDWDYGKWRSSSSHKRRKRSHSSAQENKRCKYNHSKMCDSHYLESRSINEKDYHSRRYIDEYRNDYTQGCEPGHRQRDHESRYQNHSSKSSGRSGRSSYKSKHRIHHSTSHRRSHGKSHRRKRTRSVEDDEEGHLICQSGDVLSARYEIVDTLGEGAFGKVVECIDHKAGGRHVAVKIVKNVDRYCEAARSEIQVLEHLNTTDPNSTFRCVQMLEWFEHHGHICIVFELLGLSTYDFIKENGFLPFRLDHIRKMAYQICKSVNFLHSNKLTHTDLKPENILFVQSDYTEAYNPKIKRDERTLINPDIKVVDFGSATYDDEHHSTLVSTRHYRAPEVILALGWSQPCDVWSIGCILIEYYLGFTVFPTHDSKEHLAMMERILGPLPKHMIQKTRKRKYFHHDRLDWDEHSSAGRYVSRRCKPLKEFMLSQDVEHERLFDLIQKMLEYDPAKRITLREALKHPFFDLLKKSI
Latent membrane protein 1, sequence (P03230 whole entry): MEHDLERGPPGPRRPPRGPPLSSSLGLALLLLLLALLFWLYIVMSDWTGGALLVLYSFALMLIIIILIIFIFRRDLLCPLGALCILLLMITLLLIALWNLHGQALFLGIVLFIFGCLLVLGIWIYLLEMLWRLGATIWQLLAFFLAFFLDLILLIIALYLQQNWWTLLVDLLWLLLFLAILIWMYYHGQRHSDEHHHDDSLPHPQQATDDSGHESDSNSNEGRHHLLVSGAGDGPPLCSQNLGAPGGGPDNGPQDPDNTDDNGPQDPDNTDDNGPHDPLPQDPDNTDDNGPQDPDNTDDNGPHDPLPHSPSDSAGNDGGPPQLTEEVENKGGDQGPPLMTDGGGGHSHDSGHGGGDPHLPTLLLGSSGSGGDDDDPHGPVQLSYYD

As for `COc1ccc(-c2n[nH]cc2-c2ccc3c(c2)OCCO3)c(O)c1`, the EC50 in [1] was 2.8 µM (active). Further, the concentration for half-maximal inhibition (IC50) on Prothrombin is listed as > 50 µM (not active). For the same molecule, the half-maximal activity concentration (AC50) in experiment [2] is 8.33 µM (active); in experiment [3], 12 µM (active).

As for `COc1ccc(C(=O)Nc2cc(C(=O)c3ccccc3)c(C)oc2=O)cc1`, the half-inhibitory concentration (IC50) is 11.3 µM (active) on Cysteine protease ATG4B and 11.7 µM (active) at Phospholipase A2.

Regarding `Cc1ccc(S(=O)(=O)N(C)C[C@@H]2Oc3c(NC(=O)Nc4ccc(F)cc4)cccc3C(=O)N([C@H](C)CO)C[C@H]2C)cc1`, the AC50 in the experiment on INS1 [4] was 73.9 µM (active); in experiment [5], 63.4 µM (active); in the experiment with INS1 [6], 106 µM (active).

As to `O=C(NC1CCCCCCC1)c1cc(COc2ccc3ncccc3c2)on1`, the AC50 was 39.6 µM (active) in the experiment on HEK293 [7]; 60.1 µM (active) in [8]; 1.06 µM (active) in [9]; 2.97 µM (active) in experiment [10]; 11.8 µM (active) in experiment [11]. The IC50 in experiment [12] is 4.41 µM (active).

For the molecule `C=CCOc1cccc(C2C(C(=O)c3ccc(C)o3)=C(O)C(=O)N2c2nccs2)c1` (stereo not drawn), the EC50 in experiment [13] was > 300 µM (inconclusive); in [14], 0.851 µM (active); in [15] it was 22.3 µM (inactive); in experiment [16], 11.4 µM (active); in experiment [17], 44.5 µM (inactive); in experiment [18], > 99 µM (inactive). Moreover, in the experiment on MEF, the CC50 was > 99 µM (inactive). For the same molecule, the 50% inhibitory concentration (IC50) on Genome polyprotein is 5.64 µM (active).

As for `Cc1ccc(C)c(-c2nnc(NC(=O)c3ccco3)o2)c1`, the EC50 was > 160 µM (inactive) in experiment [19], 0.695 µM (active) in [20], > 180 µM (inactive) in experiment [21] and > 160 µM (inactive) in experiment [25]. Moreover, the figures for the CC50 in [22], in [23] and in experiment [24] were > 40 µM (active), > 20 µM (active) and 15.8 µM (active), respectively. In the experiment “cells”, the IC50 was 2.58 µM (active).

Regarding `Nn1c(SCc2c(F)cccc2F)nnc1-c1ccccn1`, the IC50 (in the experiment with HEK293 [26]; in experiment [27]) was > 67.6 µM (inactive) in each case.

Values taken from ChEMBL document CHEMBL1201862, “PubChem BioAssay data set” (2004).
